Assay results published in patent US20220402998A1, “PROTEASE SWITCH FOR DUAL TARGETS CHIMERIC ANTIGEN RECEPTOR T CELL THERAPY” (priority 2019, published 2022).

Test system: NS3/4A protease domain of the CAR
Assay: CAR surface expression on transduced T cells by flow cytometry with or without asunaprevir
Assay type: cell-based, hepatitis C virus
Experimental: For flow cytometry, cells are stained using standard procedures. Briefly, cells are suspended at a concentration of 1×10^7 cells/ml in PBS+3% FBS for analysis or in Sort Buffer (PBS, 25 mM HEPES, 1 mM EDTA, 0.1% BSA) for sorting. […] Cells are analyzed by flow cytometry using a CytoFLEX (Beckman Coulter Life Sciences, Indianapolis, Ind.) and operated under standard procedures. To enrich subpopulations of CD4+ and/or CD8+ cells, magnetically separated cells are stained with anti-CD4 and/or anti-CD8 antibodies and sorted on a FACScalibur Cell Sorter.
After T cell transduction, different drugs were provided, CD19-, CD22-CAR were detected by CD19, CD22 protein through flow cytometry. Further, the biological characteristics of the dual-target switchable CAR-T cells were determined. For example, CD25 and CD69 antibodies were used to perform activation assays, CFSE for proliferation assays, CD4, CD8, CCR7 and CD45RA antibodies for determining T cell subsets, and Annexin-V for apoptosis assays. Further, cytotoxicity assays (Calcein-AM release), CD107a assay, and cytokine production detection were performed. These assays are of great importance in testing potency and defining how the switch system works.

C=C[C@@H]1C[C@]1(NC(=O)[C@@H]1C[C@@H](Oc2ncc(OC)c3ccc(Cl)cc23)CN1C(=O)[C@@H](NC(=O)OC(C)(C)C)C(C)(C)C)C(=O)NS(=O)(=O)C1CC1 [asunaprevir]
stability of CAR expression levels over time (in the presence of asunaprevir): stable over time
CAR expression on T cell surface (in the presence of asunaprevir, flow cytometry): a significant portion of T cells express on their cell surface the CAR
expression levels of CARs on cell surface versus concentration (increasing concentrations of asunaprevir): increase with exposure of said T cells to increasing concentrations of asunaprevir
CARs on the surface of CAR-T cells after withdrawal (withdrawal of asunaprevir for 24 hours): significant reduction of CARs on the surface of CAR-T cells
CARs on the surface of CAR-T cells after withdrawal (withdrawal of asunaprevir for 48 hours): absence of CARs on CAR-T cells
